Source: US20060069132A1, “Azolecarboxamide herbicides” (priority 2004, published 2006)

Columns and labels:
Assay in all cases: Test E pre-/postemergence herbicide test
[1] = tested on: common purslane; format: in vivo, Portulaca oleracea
Description: (§1) Seeds of plant species selected from bipinnate beggarticks (Bidens bipinnata L.), hairy beggarticks (Bidens radiata Thuill.), bermudagrass (Cynodon dactylon (L.) Pers.), Surinam grass (Urochloa decumbens (Staph) R. D. Webster, previously named Brachiaria decumbens Stapf), large crabgrass (Digitaria sanguinalis (L.) Scop.), green foxtail (Setaria viridis (L.) P. Beauv.), goosegrass (Eleusine indica (L.) Gaertn.), johnsongrass (Sorghum halepense (L.) Pers.), kochia (Kochia scoparia (L.) Schrad.), pitted morningglory (Ipomoea lacunosa L.), purple nutsedge (Cyperus rotundus L.), common ragweed (Ambrosia elatior L.), mustard (Brassica nigra (L.) W. D. J. Koch), guineagrass (Panicum maximum Jacq.), dallisgrass (Paspalum dilatatum Poir.), barnyardgrass (Echinochloa crus-galli (L). P. Beauv.), southern sandbur (Cenchrus echinatus L.), common sowthistle (Sonchus oleraceous L.), prickly sida (Sida spinosa L.), Italian ryegrass (Lolium multiflorum Lam.), common purslane (Portulaca oleracea L.), broadleaf signalgrass (Brachiaria platyphylla (Griseb.) Nash), common groundsel (Senecio vulgaris L.), common chickweed (Stellaria media (L.) Vill/Cyr.), tropical spiderwort (Commelina benghalensis L.), annual bluegrass (Poa annua L.), downy bromegrass (Bromus tectorum L.), itchgrass (Rottboellia cochinchinensis (L.) L.f.), quackgrass (Elytrigia repens (L.) Nevski), Canada horseweed (Erigeron Canadensis L.), field bindweed (Convolvulus arvensis L.), spotted spurge (Euphorbia maculata L.), common mallow (Malva sylvestris (=s silvestris) L.), and Russian thistle (Salsola kali L. ssp. Ruthenica (Iljin) Soo) were planted and treated preemergence with test chemicals formulated in a non-phytotoxic solvent mixture which included a surfactant.
(§2) At the same time, plants selected from these weed species were treated with postemergence applications of some of the test chemicals formulated in the same manner. Plants ranged in height from 2 to 18 cm (1- to 4-leaf stage) for postemergence treatments. Treated plants and controls were maintained in a greenhouse for 12 to 14 days, after which time all species were compared to controls and visually evaluated. Plant response ratings, summarized in Table E, are based on a scale of 0 to 100 where 0 is no effect and 100 is complete control. A dash (-) response means no test result.

[2] = tested on: Surinam grass; format: in vivo, Urochloa decumbens
Outline: (§3)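 Seeds were planted and treated preemergence with test chemicals in a non-phytotoxic solvent mixture containing surfactant; plants at 2 to 18 cm (1- to 4-leaf stage) received postemergence applications of the same formulation. After 12 to 14 days in a greenhouse, injury was visually rated against untreated controls on a 0 to 100 scale.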

[3] = tested on: broadleaf signalgrass; format: in vivo, Brachiaria platyphylla
Outline: as §3

[4] = tested on: Italian ryegrass; format: in vivo, Lolium multiflorum
Outline: as §3

[5] = tested on: guineagrass; format: in vivo, Panicum maximum
Outline: as §3

[6] = tested on: Canada horseweed; format: in vivo, Erigeron Canadensis
Description: as §1, §2

[7] = tested on: bermudagrass; format: in vivo, Cynodon dactylon
Outline: as §3

[8] = tested on: quackgrass; format: in vivo, Elytrigia repens
Outline: as §3

[9] = tested on: common groundsel; format: in vivo, Senecio vulgaris
Description: as §1, §2

[10] = tested on: itchgrass; format: in vivo, Rottboellia cochinchinensis
Outline: as §3

[11] = Postemergence, 250 g ai/ha, scale 0 to 100
[12] = Preemergence, 62 g ai/ha, scale 0 to 100
[13] = Preemergence, 125 g ai/ha, scale 0 to 100
[14] = Preemergence, 250 g ai/ha, scale 0 (no effect) to 100 (complete control)
[15] = Preemergence, 500 g ai/ha, scale 0 (no effect) to 100 (complete control)
[16] = postemergence, 125 g ai/ha, scale 0 to 100
[17] = postemergence, 62 g ai/ha, scale 0 to 100
[18] = Postemergence, 500 g ai/ha, scale 0 to 100

CCc1nn(C(C)(C)C)cc1C(=O)Nc1cc(C(=O)N(C)C)ccc1F [Compound 222, N-[5-[(dimethylamino)carbonyl]-2-fluorophenyl]-1-(1,1-dimethylethyl)-3-ethyl-1H-pyrazole-4-carboxamide]
Plant response rating, Purslane [1, 11]: 60 | Plant response rating, Purslane [1, 12]: 70 | Plant response rating, Purslane [1, 13]: 100 | Plant response rating, Purslane [1, 14]: 100 | Plant response rating, Purslane [1, 15]: 100 | Plant response rating, Purslane [1, 16]: 30 | Plant response rating, Purslane [1, 17]: 10 | Plant response rating, Surinam Grass [2, 11]: 80 | Plant response rating, Surinam Grass [2, 13]: 90 | Plant response rating, Surinam Grass [2, 15]: 100 | Plant response rating, Surinam Grass [2, 16]: 80 | Plant response rating, Surinam Grass [2, 17]: 50 | Plant response rating, Signalgrass [3, 18]: 85 | Plant response rating, Signalgrass [3, 11]: 80 | Plant response rating, Signalgrass [3, 12]: 10 | Plant response rating, Signalgrass [3, 13]: 60 | Plant response rating, Signalgrass [3, 14]: 95 | Plant response rating, Signalgrass [3, 15]: 95 | Plant response rating, Signalgrass [3, 16]: 40 | Plant response rating, Signalgrass [3, 17]: 10 | Plant response rating, Ryegrass, Italian [4, 18]: 85 | Plant response rating, Ryegrass, Italian [4, 11]: 85 | Plant response rating, Ryegrass, Italian [4, 12]: 50 | Plant response rating, Ryegrass, Italian [4, 13]: 100 | Plant response rating, Ryegrass, Italian [4, 14]: 100 | Plant response rating, Ryegrass, Italian [4, 15]: 100 | Plant response rating, Ryegrass, Italian [4, 16]: 80 | Plant response rating, Ryegrass, Italian [4, 17]: 50 | Plant response rating, Guineagrass [5, 11]: 100 | Plant response rating, Guineagrass [5, 12]: 90 | Plant response rating, Guineagrass [5, 13]: 95 | Plant response rating, Guineagrass [5, 14]: 100 | Plant response rating, Guineagrass [5, 15]: 100 | Plant response rating, Guineagrass [5, 16]: 70 | Plant response rating, Guineagrass [5, 17]: 70 | Plant response rating, Horseweed [6, 18]: 100 | Plant response rating, Horseweed [6, 11]: 90 | Plant response rating, Horseweed [6, 12]: 100 | Plant response rating, Horseweed [6, 13]: 100 | Plant response rating, Horseweed [6, 14]: 100 | Plant response rating, Horseweed [6, 15]: 100 | Plant response rating, Horseweed [6, 16]: 40 | Plant response rating, Horseweed [6, 17]: 20 | Plant response rating, Bermudagrass [7, 18]: 80 | Plant response rating, Bermudagrass [7, 11]: 80 | Plant response rating, Bermudagrass [7, 12]: 80 | Plant response rating, Bermudagrass [7, 13]: 100 | Plant response rating, Bermudagrass [7, 14]: 100 | Plant response rating, Bermudagrass [7, 15]: 100 | Plant response rating, Bermudagrass [7, 16]: 80 | Plant response rating, Bermudagrass [7, 17]: 60 | Plant response rating, Quackgrass [8, 18]: 85 | Plant response rating, Quackgrass [8, 11]: 80 | Plant response rating, Quackgrass [8, 12]: 10 | Plant response rating, Quackgrass [8, 13]: 80 | Plant response rating, Quackgrass [8, 14]: 100 | Plant response rating, Quackgrass [8, 15]: 100 | Plant response rating, Quackgrass [8, 16]: 75 | Plant response rating, Quackgrass [8, 17]: 30 | Plant response rating, Groundsel [9, 18]: 100 | Plant response rating, Groundsel [9, 11]: 95 | Plant response rating, Groundsel [9, 12]: 30 | Plant response rating, Groundsel [9, 13]: 100 | Plant response rating, Groundsel [9, 14]: 100 | Plant response rating, Groundsel [9, 15]: 100 | Plant response rating, Groundsel [9, 16]: 70 | Plant response rating, Groundsel [9, 17]: 40 | Plant response rating, Itchgrass [10, 11]: 70 | Plant response rating, Itchgrass [10, 12]: 75 | Plant response rating, Itchgrass [10, 13]: 95 | Plant response rating, Itchgrass [10, 14]: 95 | Plant response rating, Itchgrass [10, 15]: 95 | Plant response rating, Itchgrass [10, 16]: 60 | Plant response rating, Itchgrass [10, 17]: 60

CCc1nn(C(C)C)nc1C(=O)Nc1cccc(C(=O)N(C)CC)c1 [Compound 386]
Plant response rating, Purslane [1, 13]: 100 | Plant response rating, Purslane [1, 14]: 100 | Plant response rating, Surinam Grass [2, 13]: 80 | Plant response rating, Signalgrass [3, 13]: 30 | Plant response rating, Signalgrass [3, 14]: 85 | Plant response rating, Ryegrass, Italian [4, 13]: 60 | Plant response rating, Ryegrass, Italian [4, 14]: 95 | Plant response rating, Guineagrass [5, 13]: 80 | Plant response rating, Guineagrass [5, 14]: 100 | Plant response rating, Horseweed [6, 13]: 75 | Plant response rating, Horseweed [6, 14]: 95 | Plant response rating, Bermudagrass [7, 13]: 80 | Plant response rating, Bermudagrass [7, 14]: 95 | Plant response rating, Quackgrass [8, 13]: 80 | Plant response rating, Quackgrass [8, 14]: 90 | Plant response rating, Groundsel [9, 13]: 30 | Plant response rating, Groundsel [9, 14]: 50 | Plant response rating, Itchgrass [10, 13]: 70 | Plant response rating, Itchgrass [10, 14]: 70

CCc1nn(C(C)C)nc1C(=O)Nc1cccc(C(=O)N2CCCCC2)c1 [Compound 385]
Plant response rating, Purslane [1, 12]: 100 | Plant response rating, Purslane [1, 13]: 100 | Plant response rating, Purslane [1, 14]: 100 | Plant response rating, Surinam Grass [2, 13]: 20 | Plant response rating, Signalgrass [3, 12]: 10 | Plant response rating, Signalgrass [3, 13]: 20 | Plant response rating, Signalgrass [3, 14]: 20 | Plant response rating, Ryegrass, Italian [4, 12]: 10 | Plant response rating, Ryegrass, Italian [4, 13]: 30 | Plant response rating, Ryegrass, Italian [4, 14]: 60 | Plant response rating, Guineagrass [5, 13]: 60 | Plant response rating, Guineagrass [5, 14]: 100 | Plant response rating, Horseweed [6, 12]: 0 | Plant response rating, Horseweed [6, 14]: 0 | Plant response rating, Bermudagrass [7, 12]: 20 | Plant response rating, Bermudagrass [7, 13]: 60 | Plant response rating, Bermudagrass [7, 14]: 60 | Plant response rating, Quackgrass [8, 12]: 10 | Plant response rating, Quackgrass [8, 13]: 20 | Plant response rating, Quackgrass [8, 14]: 30 | Plant response rating, Groundsel [9, 12]: 0 | Plant response rating, Groundsel [9, 13]: 0 | Plant response rating, Groundsel [9, 14]: 60 | Plant response rating, Itchgrass [10, 12]: 20 | Plant response rating, Itchgrass [10, 13]: 20 | Plant response rating, Itchgrass [10, 14]: 20
